Data: patent US7816331B2, “Substituted indazole-O-glucosides” (Janssen Pharmaceutica NV, priority 2003, dated 2010)

Experiments:
[1] = target: T1, human SGLT1 (Homo sapiens, UniProt P13866); assay: Cell-based assay for sodium-dependent glucose transport (14C-AMG uptake), CHOK-SGLT1; details: 10 uM compound, CHO-K1 cells stably expressing human SGLT1, Na-dependent 14C-AMG uptake; for inhibition at 10 µM: read-out: CHOK-SGLT1 % Inh (10 uM)
T1 construct: expressed in transfected cells
T1 sequence (P13866 1-664): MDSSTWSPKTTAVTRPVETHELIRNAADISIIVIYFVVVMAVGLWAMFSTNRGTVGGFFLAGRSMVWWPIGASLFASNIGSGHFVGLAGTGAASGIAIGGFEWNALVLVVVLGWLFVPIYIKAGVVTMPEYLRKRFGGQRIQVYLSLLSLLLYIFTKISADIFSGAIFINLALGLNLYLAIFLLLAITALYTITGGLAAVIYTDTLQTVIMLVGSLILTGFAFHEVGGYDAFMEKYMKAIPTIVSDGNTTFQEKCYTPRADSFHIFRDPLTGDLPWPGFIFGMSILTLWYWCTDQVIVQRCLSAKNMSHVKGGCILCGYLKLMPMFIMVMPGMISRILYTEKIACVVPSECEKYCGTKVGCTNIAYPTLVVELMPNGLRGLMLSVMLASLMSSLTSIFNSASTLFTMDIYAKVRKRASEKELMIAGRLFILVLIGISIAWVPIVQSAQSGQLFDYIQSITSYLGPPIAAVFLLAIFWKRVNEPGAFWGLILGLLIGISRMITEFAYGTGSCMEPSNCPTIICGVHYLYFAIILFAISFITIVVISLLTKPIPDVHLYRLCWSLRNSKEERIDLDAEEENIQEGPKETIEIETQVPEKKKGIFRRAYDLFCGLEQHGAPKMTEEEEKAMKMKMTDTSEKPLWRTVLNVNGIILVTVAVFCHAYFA
Method: (§1) Cloning of the human SGLT1 and human SGLT2 cDNAs and construction of the mammalian expression vector: The human SGLT1 cDNA (Genbank M24847) was cloned from human small intestine. Human SGLT2 cDNA (Genbank M95549) was cloned from human kidney. Both full cDNAs were subcloned into pcDNA and sequenced to verify the integrity of the construct. Generation of CHO-K1 cells stably expressing human SGLT1 or human SGLT2: Transfection of CHO-K1 cells was performed using DMRIE-C reagent (Life Technologies, Gaithersburg, Md.). Transfectants were then selected in the presence of the antibiotic G418 (Gibco-BRL, Grand Island, N.Y.) at 400 μg/ml. Individual clones were then characterized using the functional assay described below. Cell-based assay for sodium-dependent glucose transport: Cell lines stably expressing human SGLT1 or SGLT2 were then used for functional analysis of Na^+-dependent glucose uptake. Briefly, cells were plated at a density of 65,000 cells per well in a 96-well plate and allowed to grow for 48 hours. Cells were subsequently washed one time with Assay Buffer (50 mM HEPES pH 7.4, 20 mM Tris, 5 mM KCl, 1 mM MgCl2, 1 mM CaCl2 and 137 mM NaCl) and treated with compound in the absence or presence of NaCl for 15 minutes. Cells were then labeled with ^14C-α-methylglucopyranoside (AMG, Sigma, St. Louis, Mo.), a non-metabolizable glucose analog specific for sodium-dependent glucose transporters as previously described (Peng, H. and Lever J. E. Post-transcriptional regulation of Na^+/glucose cotransporter (SGLT1) gene expression in LLC-PK1 cells. J Biol Chem 1995; 270:20536-20542.). After 2 hours the labelled cells were washed three times with ice-cold PBS. After aspiration, cells were solubilized using Microscint 20 (Packard, Meriden, Conn.) and Na-dependent ^14C-AMG uptake was quantified by measuring radioactivity. Plates were counted in a TopCount (Packard, Meriden, Conn.). Results are reported as the % inhibition or IC50 value from a representative experiment. Variability for the functional assay was typically within 20%.

[2] = target: T2, human SGLT2 (Homo sapiens, UniProt P31639); assay: Cell-based assay for sodium-dependent glucose transport (14C-AMG uptake), CHOK-SGLT2; details: for inhibition at 10 µM: CHO-K1, read-out: CHOK-SGLT2 % Inh. @ 10 μM; for IC50: CHO-K1 cells stably expressing human SGLT2, Na-dependent 14C-AMG uptake, read-out: CHOK-SGLT2 IC50 (uM) ± SEM
T2 construct: expressed in transfected cells
T2 sequence (P31639 1-672): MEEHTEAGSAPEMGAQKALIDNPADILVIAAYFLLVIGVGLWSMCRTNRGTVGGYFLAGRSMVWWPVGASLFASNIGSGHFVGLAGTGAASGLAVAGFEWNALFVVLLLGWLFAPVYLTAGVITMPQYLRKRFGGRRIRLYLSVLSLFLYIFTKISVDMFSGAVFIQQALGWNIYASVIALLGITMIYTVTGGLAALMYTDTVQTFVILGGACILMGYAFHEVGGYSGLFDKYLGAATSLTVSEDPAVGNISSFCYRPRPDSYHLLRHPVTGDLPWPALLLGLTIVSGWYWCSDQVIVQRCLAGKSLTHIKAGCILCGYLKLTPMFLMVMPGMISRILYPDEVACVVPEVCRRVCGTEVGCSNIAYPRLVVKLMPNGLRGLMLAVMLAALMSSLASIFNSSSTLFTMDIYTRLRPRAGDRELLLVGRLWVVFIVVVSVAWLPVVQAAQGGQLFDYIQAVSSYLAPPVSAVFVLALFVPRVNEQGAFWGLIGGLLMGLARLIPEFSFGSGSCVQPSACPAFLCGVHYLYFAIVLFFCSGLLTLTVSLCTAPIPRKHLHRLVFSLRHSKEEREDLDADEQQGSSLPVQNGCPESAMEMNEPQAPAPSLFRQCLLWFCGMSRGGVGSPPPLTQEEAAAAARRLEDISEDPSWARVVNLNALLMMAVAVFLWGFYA
Method: as §1, with “experiment.” for “experiment. Variability for the functional assay was typically within 20%.”

SMILES	CHOK-SGLT1 % Inh (10 uM) [1]	inhibition at 10 µM [2] [%]	inhibition at 10 µM [1] [%]	IC50 [2] [µM]
Cc1cc(OC2OC(CO)C(O)C(O)C2O)c2c(CCC3CCCCC3)n[nH]c2c1 [Example 17, 2-[3-(2-Cyclohexyl-ethyl)-6-methyl-1H-indazol-4-yloxy]-β-D-glucopyranoside]	inactive	67	–	–
COc1ccc(Cc2n[nH]c3cc(C)cc(O[C@@H]4O[C@H](CO)[C@@H](O)[C@H](O)[C@H]4O)c23)cc1 [Example 21, 2-[3-(4-Methoxy-benzyl)-6-methyl-1H-indazol-4-yloxy]-β-D-glucopyranoside]	inactive	–	–	0.959 ± 0.118
Cc1cc(O[C@@H]2O[C@H](CO)[C@@H](O)[C@H](O)[C@H]2O)c2c(Cc3ccc4c(c3)CCO4)n[nH]c2c1 [Example 22, 2-[3-(2,3-Dihydro-benzofuran-5-ylmethyl)-6-methyl-1H-indazol-4-yloxy]-β-D-glucopyranoside]	inactive	40	–	–

The next lines start with the values.

CHOK-SGLT1 % Inh (10 uM) [1]	inhibition at 10 µM [2] [%]	inhibition at 10 µM [1] [%]	IC50 [2] [µM]	SMILES
–	–	43	1.2 ± 0.071	OC[C@H]1O[C@@H](Oc2cccc3[nH]nc(CCc4ccc5occc5c4)c23)[C@H](O)[C@@H](O)[C@@H]1O [Example 18]
inactive	–	–	0.532 ± 0.047	CCc1cc(O[C@@H]2O[C@H](CO)[C@@H](O)[C@H](O)[C@H]2O)c2c(CCc3ccc4c(c3)CCO4)n[nH]c2c1 [Example 19, 2-{3-[2-(2,3-Dihydro-benzofuran-5-yl)-ethyl]-6-ethyl-1H-indazol-4-yloxy}-D-glucopyranoside]
–	64	38	–	COc1ccc(SCc2n[nH]c3cccc(OC4OC(CO)C(O)C(O)C4O)c23)cc1 [Example 20, 2-[3-(4-Methoxy-phenylsulfanylmethyl)-1H-indazol-4-yloxy]-β-D-glucopyranoside]
